Here are results for 25 molecules from ChEMBL document CHEMBL5257080, “Optimization of physicochemical properties of pyrrolidine GPR40 AgoPAMs results in a differentiated profile with improved pharmacokinetics and reduced off-target activities” (Bioorg Med Chem, 2023).

Data set [1] has as its target T1, Peroxisome proliferator-activated receptor gamma (Homo sapiens, UniProt P37231).
T1 sequence (P37231 whole entry): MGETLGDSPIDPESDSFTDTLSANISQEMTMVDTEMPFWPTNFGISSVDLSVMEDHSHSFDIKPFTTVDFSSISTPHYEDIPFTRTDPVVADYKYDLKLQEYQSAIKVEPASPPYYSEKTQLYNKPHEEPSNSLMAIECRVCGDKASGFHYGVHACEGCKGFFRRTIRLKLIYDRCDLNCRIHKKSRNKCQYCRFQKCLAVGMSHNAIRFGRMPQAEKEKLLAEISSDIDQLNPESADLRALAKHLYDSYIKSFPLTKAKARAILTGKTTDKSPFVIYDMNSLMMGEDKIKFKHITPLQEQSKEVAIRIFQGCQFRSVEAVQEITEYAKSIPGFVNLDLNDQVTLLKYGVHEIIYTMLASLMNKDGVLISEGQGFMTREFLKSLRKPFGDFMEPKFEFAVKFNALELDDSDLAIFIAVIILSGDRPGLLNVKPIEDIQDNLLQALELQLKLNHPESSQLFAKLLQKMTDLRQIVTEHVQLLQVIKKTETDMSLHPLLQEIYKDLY
Put plainly: Transactivation of PPARgamma (unknown origin).

Data set [2] has as its target T2, Free fatty acid receptor 1 (Homo sapiens, UniProt O14842). Put plainly: Positive allosteric modulation of human GPR40 by calcium based FLIPR analysis.
Data set [3] in a line: Lipophilicity, logD of compound. Type of data set: physicochemical. To be noted: octanol/water.
The target in data set [4] is Free fatty acid receptor 1 (Mus musculus, UniProt Q76JU9). Put plainly: Positive allosteric modulation of mouse GPR40.
The nature of data set [5]: Cmax in mouse at 1 mg/kg. In kind it is ADME, organism-based. On the set-up: dose 1 mg/kg. The following applies: in vivo.
A short description of data set [6]: AUC (0-7hrs) in mouse at 1 mg/kg. In kind it is ADME, organism-based. Also on record: dose 1 mg/kg. The following applies: in vivo.
For data set [7], the target named is T2, Free fatty acid receptor 1. Put plainly: Positive allosteric modulation of human GPR40 expressed in HEK293 cells. Type of data set: cell-based.
The nature of data set [8]: Metabolic stability in mouse liver microsome assessed as parent compound remaining after 10 mins. In kind it is ADME. The following applies: liver microsomes, read-out: Stability. On the technique in general: Liver microsomes are vesicles of endoplasmic reticulum, rich in cytochrome P450 enzymes.
For a further data set, the system named is Mus musculus. The data set is described as follows: Anti-hyperglycemic activity against mouse assessed as reduction in plasma glucose level at 3 mg/kg, po by OGTT analysis. In kind it is functional, organism-based.
Data set [9] in a line: Drug concentration in mouse plasma measured after 3 hrs. Type of data set: ADME.
The target of data set [10] is T2, Free fatty acid receptor 1. Put plainly: Positive allosteric modulation of human GPR40 expressed in HEK293 cells assessed as maximum efficacy relative to control. In kind it is cell-based. To be noted: filed as positive allosteric modulator.
Data set [11] in a line: Toxicity in rat. The following applies: in vivo.
Data set [12] is described as follows: Toxicity in rat assessed as change in heart rate. To be noted: in vivo.
Data set [13] is described as follows: Toxicity in rat assessed as change in spontaneous locomotor activity. To be noted: in vivo.
Data set [14] can be described thus: Toxicity in Sprague-Dawley rat assessed as hypoglycemia at 80 mg/kg, po measured for 24 hrs by glucometer analysis. Type of data set: organism-based. The following applies: in vivo.
Data set [15] is described as follows: Permeability of compound across apical to basolateral side in dog MDCK cells. Type of data set: ADME, cell-based, Canis lupus familiaris. To be noted: read-out: permeability.
A short description of data set [16]: Tmax in rat at 240 mg/kg qd. The following applies: in vivo. In kind it is ADME, organism-based.
Data set [17] can be described thus: Tmax in rat at 800 mg/kg qd. Type of data set: ADME, organism-based. To be noted: in vivo.
Data set [18] in a line: Tmax in rat at 80 mg/kg qd. To be noted: in vivo. In kind it is ADME, organism-based.
Data set [19] is described as follows: Cmax in rat at 80 mg/kg qd. On the set-up: dose 80 mg/kg. In kind it is ADME, organism-based. To be noted: in vivo.
Data set [20] is described as follows: Cmax in rat at 240 mg/kg qd. Type of data set: ADME, organism-based. On the set-up: dose 240 mg/kg. To be noted: in vivo.
Data set [21] is described as follows: Cmax in rat at 800 mg/kg qd. To be noted: in vivo. In kind it is ADME, organism-based. On the set-up: dose 800 mg/kg.
Data set [22] can be described thus: Cmax in rat at 40 mg/kg bid. In kind it is ADME, organism-based. Also on record: dose 40 mg/kg. To be noted: in vivo.
Data set [23] in a line: AUC (0 to 24 hrs) in rat at 80 mg/kg qd. In kind it is ADME, organism-based. On the set-up: dose 80 mg/kg. To be noted: in vivo.
Data set [24] is described as follows: AUC (0 to 24 hrs) in rat at 240 mg/kg qd. In kind it is ADME, organism-based. Also on record: dose 240 mg/kg. To be noted: in vivo.
Data set [25] is described as follows: AUC (0 to 24 hrs) in rat at 800 mg/kg qd. In kind it is ADME, organism-based. Also on record: dose 800 mg/kg. To be noted: in vivo.

pEC50: −log10 of the molar value. The source made the active and inactive calls. The rule behind the calls is not given here.

A word on the pEC50: it is −log10 of the EC50, conventionally taken in molar units. Broadly, the logD is the decadic logarithm of the distribution of all forms, ionised or not, between an organic phase and buffer at a given pH. Read a high logD as a more lipophilic compound. A word on the Cmax: it is the peak of the concentration-time curve. The AUC(0-t) is the area under the concentration-time curve up to a stated or last time point. A low value points to less exposure. The Emax is the greatest response seen or fitted, relative to the assay's reference. As a reminder, the Tmax is the time from dosing to the highest level. Broadly, the AUC is concentration integrated over time. Higher therefore signals high exposure.

T2 sequence (O14842 whole entry): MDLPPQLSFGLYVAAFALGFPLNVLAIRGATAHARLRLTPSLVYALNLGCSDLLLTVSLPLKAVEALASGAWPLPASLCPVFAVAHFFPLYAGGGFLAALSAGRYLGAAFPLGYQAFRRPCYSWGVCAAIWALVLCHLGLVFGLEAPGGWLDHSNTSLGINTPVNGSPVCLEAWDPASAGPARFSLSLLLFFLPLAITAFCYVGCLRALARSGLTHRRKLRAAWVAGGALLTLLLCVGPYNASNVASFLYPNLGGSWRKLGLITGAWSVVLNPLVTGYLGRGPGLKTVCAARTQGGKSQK
Chain of Free fatty acid receptor 1 (Mus musculus, UniProt Q76JU9) (Q76JU9 whole entry): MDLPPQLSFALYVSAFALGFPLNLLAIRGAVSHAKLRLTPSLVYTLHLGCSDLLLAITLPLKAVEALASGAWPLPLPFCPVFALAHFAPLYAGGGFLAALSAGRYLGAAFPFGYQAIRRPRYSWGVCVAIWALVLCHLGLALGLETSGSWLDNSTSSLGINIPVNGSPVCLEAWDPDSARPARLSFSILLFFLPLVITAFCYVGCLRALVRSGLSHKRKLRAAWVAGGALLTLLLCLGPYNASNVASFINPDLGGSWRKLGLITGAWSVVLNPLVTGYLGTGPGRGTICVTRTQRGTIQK

With `CCOc1ccc(F)c(N2CC[C@@H](Oc3ccc(N4C[C@H](C(F)(F)F)C[C@@H]4CC(=O)O)cc3)[C@H](C)C2)c1`, the negative logarithm of the EC50 (pEC50) in data set [1] was less than 4.32.
For `CCCCCO[C@H]1CN(c2ccc(O[C@@H]3CCN(c4cc(OC)ncc4Cl)C[C@H]3C)cc2)[C@@H](CC(=O)O)[C@@H]1C`, the pEC50 in [2] is 6.72.
Consider `CCOc1ccc(F)c(N2CC[C@@H](Oc3ccc(N4C[C@H](OCCCOC)[C@@H](C)[C@@H]4CC(=O)O)cc3)[C@H](C)C2)c1`, for which the negative logarithm of the EC50 (pEC50) is less than 4.33 in data set [1], 7.29 in [2] and 7.74 in [4]. The pH-dependent lipophilicity (logD) in data set [3] came out at 1.82. The highest level in data set [5] (Cmax) was 1.4 µM. For the same molecule, in data set [6], the AUC(0-t) stood at 2.9 µM·h.
`COCCOCO[C@H]1CN(c2ccc(O[C@@H]3CCN(c4cc(OC)ncc4Cl)C[C@H]3C)cc2)[C@@H](CC(=O)O)[C@@H]1C`: in [2], the negative logarithm of the EC50 (pEC50) is 6.74.
For the molecule `CCOc1ccc(F)c(N2CC[C@@H](Oc3ccc(N4C[C@H](C(F)(F)F)C[C@@H]4CC(=O)O)cc3)[C@H](Cc3ccccc3)C2)c1`, in [2], the pEC50 is 6.13.
Take `COc1cc(N2CC[C@@H](Oc3ccc(N4C[C@H](OCCCC#N)[C@@H](C)[C@@H]4CC(=O)O)cc3)[C@H](C)C2)c(Cl)cn1`: the negative logarithm of the EC50 (pEC50) in [2] was 6.92.
`CCOc1ccc(F)c(N2CC[C@@H](Oc3ccc(N4C[C@](C)(OC)C[C@@H]4CC(=O)O)cc3)[C@H](C)C2)c1`: in data set [2], the pEC50 was 6.66.
For `CCOc1ccc(F)c(N2CC[C@@H](Oc3ccc(N4CC(C)(C)C[C@@H]4CC(=O)O)cc3)[C@H](C)C2)c1`, in [1], the negative-log EC50 (pEC50) was less than 4.32.
As for `CCOc1ccc(F)c(N2CC[C@@H](Oc3ccc(N4C[C@H](C(F)(F)F)C[C@@H]4CC(=O)O)cc3)[C@H](CC(C)C)C2)c1`, the negative logarithm of the EC50 (pEC50) in data set [2] was 6.37.
`CCOc1ccc(F)c(N2CC[C@@H](Oc3ccc(N4C[C@H](OCCCOC)C[C@@H]4CC(=O)O)cc3)[C@H](C)C2)c1`: in data set [3], the logD stood at 1.3.
Consider `COc1ccc(F)c(N2CCC(Oc3ccc(N4CCC[C@@H]4CC(=O)O)cc3)CC2)c1`, for which the negative-log EC50 (pEC50) in data set [7] was 5.85; in data set [1], less than 4.30.
Take `COc1cc(N2CC[C@@H](Oc3ccc(N4C[C@H](F)[C@@H](C)[C@@H]4CC(=O)O)cc3)[C@H](C)C2)c(Cl)cn1`: the pEC50 is less than 4.32 in [1], 7.54 in data set [2] and 7.32 in data set [4]. The remaining at 10 min in [8] came to 97%. The outcome with Mus musculus was inactive. Further, the concentration at 3 h in data set [9] was 0.156 µM.
With `CCOc1ccc(F)c(N2CC[C@@H](Oc3ccc(N4C[C@H](c5ccccc5)C[C@@H]4CC(=O)O)cc3)[C@H](C)C2)c1`, the pEC50 in data set [1] is less than 4.32; in [2], 6.64.
As for `COc1ccc(F)c(-c2ccc(Cc3ccc(N4C[C@H](C(F)(F)F)C[C@@H]4CC(=O)O)cc3)c(C)c2)c1`, in [10], the maximal response (Emax) was determined as 97%. Besides, the Activity result in data set [11] is “Toxic”; in [12], “Non-Toxic”; in data set [13] it was “Non-Toxic”; in data set [14] it was “Non-Toxic”.
`COc1ccc(F)c(N2CCC(Oc3ccc(N4CCC[C@H]4CC(=O)O)cc3)CC2)c1`: the results for the negative logarithm of the EC50 (pEC50) in data set [7] and in data set [1] were 5.39 and less than 4.30, respectively.
In turn, `COc1cc(N2CC[C@@H](Oc3ccc(N4C[C@H](F)[C@@H](OC)[C@@H]4CC(=O)O)cc3)[C@H](C)C2)c(Cl)cn1` showed a pEC50 in [1] of less than 4.32.
The molecule `CCOc1ccc(F)c(N2CC[C@@H](Oc3ccc(N4C[C@H](OC)[C@@H](C)[C@@H]4CC(=O)O)cc3)[C@H](C)C2)c1` had a pEC50 in data set [1] of less than 4.32. The molecule also yielded a Cmax in data set [5] of 0.5 µM. This molecule also displayed an AUC(0-t) in data set [6] of 0.5 µM·h.
On to `CCOc1ccc(F)c(N2CC[C@@H](Oc3ccc(N4C[C@H](C(F)(F)F)C[C@@H]4CC(=O)O)cc3)[C@H](CC)C2)c1`, for which the pEC50 in data set [2] is 6.37.
For the molecule `COc1cc(N2CC[C@@H](Oc3ccc(N4CC[C@@H](C)[C@@H]4CC(=O)O)cc3)[C@H](C)C2)c(Cl)cn1`, the pEC50 was less than 4.32 in data set [1] and 6.96 in [2].
As for `COc1cc(N2CC[C@@H](Oc3ccc(N4C[C@H](C(F)(F)F)[C@@H](C)[C@@H]4CC(=O)O)cc3)[C@H](C)C2)c(Cl)cn1`, in data set [1], the pEC50 was less than 4.32.
With `COc1ccc(F)c(-c2ccc(Cc3ccc(N4N=C(C(F)(F)F)[C@@H](C)[C@@H]4CC(=O)O)cc3)c(C)c2)c1`, in [15], the Papp A→B came to 5.7 ×10⁻⁶ cm/s. In addition, the figures for the Tmax in data set [16], in data set [17] and in [18] were 6 h, 48 h and 4 h, respectively. In addition, the maximum concentration (Cmax) is 30 µM in [19], 30 µM in data set [20], 65 µM in [21] and 30 µM in data set [22]. Besides, the AUC in data set [23] amounted to 243 µM·h; in data set [24], 1080 µM·h; in data set [25] it was 1430 µM·h. Moreover, the Activity entry in data set [14] was “Non-Toxic”.
For the molecule `CCOc1ccc(F)c(N2CCC(Oc3ccc(N4C[C@H](OCCCOC)C[C@@H]4CC(=O)O)cc3)CC2)c1`, the negative logarithm of the EC50 (pEC50) in data set [1] is less than 4.33. In data set [3], this molecule displayed a logD of 0.81.
In the case of `CCOc1ccc(F)c(N2CCC(Oc3ccc(N4C[C@H](Oc5cccc(OC)c5)C[C@@H]4CC(=O)O)cc3)CC2)c1`, the pEC50 in data set [1] is less than 4.33. The molecule further came in with a logD in data set [3] of 2.15.
In turn, `CCOc1ccc(F)c(N2CC[C@@H](Oc3ccc(N4C[C@H](OC)C[C@@H]4CC(=O)O)cc3)[C@H](C)C2)c1` showed a pEC50 in [1] of 4.92.
`CCOc1ccc(F)c(N2CCC(Oc3ccc(N4C[C@H](Oc5ccccc5)C[C@@H]4CC(=O)O)cc3)CC2)c1` gave a pEC50 in data set [1] of less than 4.33. For the same molecule, in [3], the logD amounted to 2.44.
